Reference: patent US20120035161A1, “Novel Compositions and Methods of Treating Diseases Using the Same” (CORRIDOR PHARMACEUTICALS, INC., priority 2006, published 2012)

Legend:
[1] = tested on: rheumatoid arthritis (RA) animal model; test: Clinical arthritis score in mice sensitized with collagen injections; assay type: in vivo
Description: FIGS. 26-28 illustrate the effect of various compounds of the invention on the clinical arthritis score of mice treated with various compounds of the invention.
Additional testing of the effectiveness of compounds ICI-685, ICI-735 and ICI-847 at higher and lower concentrations were conducted, as illustrated in FIG. 29.

[2] = tested on: Aspergillus fumigatus-based mouse asthma model; test: Aspergillus fumigatus-based mouse asthma model, lung resistance; assay type: in vivo; settings: 20 mg/ml, intraperitoneally; for Lung resistance: A. fumigatus insult, day 29
Description: Compounds of the invention were also tested for efficiacy in an asthma model.
A cohort of mice was administered intraperitoneal injections of Aspergillus fumigatus on days 0, 14, 26, 27, and 28. Lung resistance was tested on day 29 immediately following a tracheotomy/methacholine procedure. Animals receiving dexamethasone were administered dexamethasone on days 26, 27 and 28. Animals receiving a compound of the invention were administered the compound just hours before the lung resistance test. As a control, all test compounds, as well as dexamethasone, were also administered to mice in the absence of an A. fumigatus insult.

[3] = tested on: Serotonin (5-Hydroxytryptamine) 5-HT1, Non-Selective; test: Assay 271000 radioligand binding, 5-HT1 non-selective; set-up: species or system Wistar Rat
Description: (§1) The methods employed in this study have been adapted from the scientific literature to maximize reliability and reproducibility. Reference standards were run as an integral part of each assay to ensure the validity of the results obtained. Assays were performed under conditions as described below. Where presented, IC50 values were determined by a non-linear, least squares regression analysis using the Data Analysis Toolbox (MDL Information Systems, San Leandro, Calif., USA). Where inhibition constants (Ki) are presented, the Ki values were calculated using the equation of Cheng and Prusoff (Cheng, Y., Prusoff, W. H., Biochem. Pharmacol. 22:3099-3108, 1973) using the observed IC50 of the tested compound, the concentration of radioligand employed in the assay, and historical values for the KD of the ligand. Where presented, the Hill coefficient (nu), defining the slope of the competitive binding curve, was calculated using the Data Analysis Toolbox.

[4] = target: T1, Serotonin (5-Hydroxytryptamine) 5-HT1A (Homo sapiens, UniProt P08908); test: Radioligand binding, 5-HT1A ([3H] 8-OH-DPAT)
T1 construct: expressed in transfected cells; host or cells: CHO cells
T1 sequence (P08908 1-422): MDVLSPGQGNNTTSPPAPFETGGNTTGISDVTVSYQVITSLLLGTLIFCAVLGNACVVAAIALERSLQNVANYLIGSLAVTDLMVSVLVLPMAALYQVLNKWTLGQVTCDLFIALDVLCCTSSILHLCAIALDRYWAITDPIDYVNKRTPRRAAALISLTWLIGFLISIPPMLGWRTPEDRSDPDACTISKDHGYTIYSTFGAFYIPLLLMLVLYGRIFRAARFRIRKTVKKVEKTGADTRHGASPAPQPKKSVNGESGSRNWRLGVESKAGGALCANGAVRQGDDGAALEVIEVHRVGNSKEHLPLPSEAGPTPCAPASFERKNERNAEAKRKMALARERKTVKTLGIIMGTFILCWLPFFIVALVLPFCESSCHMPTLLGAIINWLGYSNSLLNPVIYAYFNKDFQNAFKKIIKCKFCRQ
Description: as §1

[5] = target: T2, Serotonin (5-Hydroxytryptamine) 5-HT1B (Rattus norvegicus, UniProt P28564); test: Assay 271200 radioligand binding, 5-HT1B; set-up: species or system Wistar Rat
T2 construct: from tissue
T2 sequence (P28564 whole entry): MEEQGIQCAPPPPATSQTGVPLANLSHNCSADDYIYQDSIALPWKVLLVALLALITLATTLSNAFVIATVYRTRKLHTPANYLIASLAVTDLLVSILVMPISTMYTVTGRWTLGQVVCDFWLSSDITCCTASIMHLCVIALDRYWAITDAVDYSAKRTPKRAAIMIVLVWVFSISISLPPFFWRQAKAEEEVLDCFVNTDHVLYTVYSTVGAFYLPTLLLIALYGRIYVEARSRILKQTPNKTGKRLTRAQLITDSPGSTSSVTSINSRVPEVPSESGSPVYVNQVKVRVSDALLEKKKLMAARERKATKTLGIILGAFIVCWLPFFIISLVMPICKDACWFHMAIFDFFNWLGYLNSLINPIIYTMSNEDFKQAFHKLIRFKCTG
Description: as §1

[6] = tested on: Serotonin (5-Hydroxytryptamine) 5-HT2, Non-Selective; test: Assay 271600 radioligand binding, 5-HT2 non-selective; set-up: species or system Wistar Rat
Description: as §1

TNF-α = test: Model of LPS-mediated cytokine production, serum TNF-α; assay type: in vivo, CD1:ICR mice; settings: 10 mg/kg
Description: (§2) Both ICI-685 and ICI-735 were formulated in water. For the time course study, both drugs were formulated at a concentration of 1 mg/ml and dosed 10 ml/kg to produce a dose of 10 mg/kg. For the dose-response study, drug was formulated at concentrations of 0.05, 0.2 and 0.5 mg/ml and dosed at a volume of 10 ml/kg to produce doses of 0.5, 2 and 5 mg/kg, respectively. Animals were dosed IV or IP.
CD1:ICR mice were obtained from Harlan (Indianapolis, Ind.) at 6 weeks of age. Animals were housed 5 per cage, kept on a 12 hr light dark cycle and fed food and water ad libitum. Animals were tested at 8-10 weeks of age.
(§3) Lipopolysaccharide (heat killed E. coli 0127:B5; Sigma Aldrich) was prepared in distilled water at a concentration of 0.025 mg/ml. LPS was dosed at a volume of 10 ml/kg (IP) to produce a final dose of 0.25 mg/kg (approximately 7.5 μg/mouse). Drugs were dosed prior to LPS administration as indicated elsewhere herein. Blood was collected by retro-orbital eye bleed 90 minutes after LPS administration, Serum was prepared from blood and TNF-α and IL-1β levels were measured by using the OPT-EIA mouse TNF-α and IL-1β ELISA kits (BD Biosciences) as per directions of the manufacturer.
The first study was designed to determine the optimal route of administration and the optimal pre-treatment time. Two pre-dose time course studies were conducted. The first (Study 1A) was conducted with 3 pre-dose time points (2, 6 and 18 hrs). The second was conducted at 0, 1 and 2 hr predose time points. For both studies, drug was dosed IP or IV.
Using data from the first study, a second study was conducted that was designed to measure dose-response activity of each compound. Compounds were tested at doses of […]., 2.0 and 5 mg/kg using the route and pre-treatment time that produced the best activity.
as §2, with “Compounds ICI-715, ICI-824, ICI-953” for “Both ICI-685”, “ICI-954” for “ICI-735”, “study,” for “study, both”, “drugs were” for “drug was”
as §3, with “mg/ml,” for “mg/ml.”, “[…]).” for “μg/mouse).”, “above.” for “elsewhere herein.”, “administration.” for “administration,”
The first study was designed to determine the optimal route of administration and the optimal pre-treatment time. One pre-dose time course was conducted (for all compounds) with compounds administered at 0, 1 and 2 hrs prior to LPS treatment. For both studies, drug was dosed IP or IV. The IP study and IV study were conducted on separate days.
Using data from the first study, a second study was conducted that was designed to measure dose-response activity of each compound. Compounds were tested at doses of 0.5, 2.0 and 5 mg/kg using the route and pre-treatment time that produced the best activity.

## NCCCN1CCC(CCCN2c3ccccc3Sc3ccc(C(F)(F)F)cc32)CC1 [ICI-847]
[1]; 30 mg/kg, FIG. 29
  effectiveness at treating RA compared with dexamethasone: as effective for the length of the study as is dexamethasone
[1]; orally 10 mg/kg daily, about 21 days, FIG. 26
  clinical arthritis score compared with dexamethasone: as effective as dexamethasone
[2]
  Lung resistance: 7.25 cm H2O/ml/s
  decreasing lung resistance compared with dexamethasone: at least as effective as dexamethasone
[3]; 0.1 μM
  % INHIBITION: −11%
[3]; 10 μM
  % INHIBITION: −7%
[4]
  inhibition at 0.1 µM: -8%
  inhibition at 10 µM: 74%
[5]
  inhibition at 0.1 µM: -5%
  inhibition at 10 µM: -33%
[6]; 0.1 μM
  % INHIBITION: 3%
[6]; 10 μM
  % INHIBITION: 82%

## FC(F)(F)c1ccc2c(c1)N(CCCN1CCNCC1)c1ccccc1S2 [ICI-685]
[2]
  Lung resistance: 12 cm H2O/ml/s
[3]; 0.1 μM
  % INHIBITION: −3%
[3]; 10 μM
  % INHIBITION: 32%
[4]
  inhibition at 0.1 µM: 1%
  inhibition at 10 µM: 26%
[5]
  inhibition at 0.1 µM: 6%
  inhibition at 10 µM: 10%
[6]; 0.1 μM
  % INHIBITION: 31%
[6]; 10 μM
  % INHIBITION: 82%
TNF-α; Mus musculus, second pre-dose time course study, read-out: inhibition of TNFα
  inhibition at 10 mg/kg: 70%
TNF-α; first time course, 2 hr pretreatment period, IV administration
  inhibition of TNFα levels: did not inhibit
TNF-α; pre-dose time course, IV or IP
  inhibition of LPS-stimulated TNFα secretion: inhibited

## C[C@@H]1C[C@H]2[C@@H]3CCC4=CC(=O)C=C[C@]4(C)[C@@]3(F)[C@@H](O)C[C@]2(C)[C@@]1(O)C(=O)CO [Dexamethasone, reference compound]
[2]
  Lung resistance: 7.75 cm H2O/ml/s
